26 compounds from ChEMBL document CHEMBL3046602, “Chiral 1,5-disubstituted 1,3,5-hexahydrotriazine-2-N-nitroimine analogues as novel potent neonicotinoids: Synthesis, insecticidal evaluation and molecular docking studies” (2011) can be followed below.

Common to all, as to format: functional
In experiment [1] the test system is Aphis medicaginis. Briefly: Insecticidal activity against Aphis medicaginis assessed as insect mortality at 10 mg/L measured after 72 hr post compound treatment.
Experiment [2] deals with Aphis medicaginis. Briefly: Insecticidal activity against Aphis medicaginis assessed as insect mortality at 500 mg/L measured after 72 hr post compound treatment.
For experiment [3], the system named is Aphis medicaginis. Briefly: Insecticidal activity against Aphis medicaginis assessed as insect mortality at 100 mg/L measured after 72 hr post compound treatment.

The term mortality denotes the percentage killed. Turning to `CCOC(=O)[C@H](C(C)C)N1CN/C(=N\[N+](=O)[O-])N(Cc2ccc(Cl)nc2)C1`, the mortality at 10 µg/mL in the experiment with Aphis medicaginis [1] is no less than 60%. Moreover, the mortality at 500 µg/mL in the experiment on Aphis medicaginis [2] is no less than 80%. Moreover, the mortality at 100 µg/mL in the experiment on Aphis medicaginis [3] was no less than 70%.
For `CCOC(=O)CCCN1CN/C(=N\[N+](=O)[O-])N(Cc2cnc(Cl)s2)C1`, in the experiment with Aphis medicaginis [1], the mortality at 10 µg/mL is no less than 80%. Besides, in the experiment on Aphis medicaginis [2], the mortality at 500 µg/mL turned out to be 100%. Moreover, in the experiment on Aphis medicaginis [3], the mortality at 100 µg/mL turned out to be 100%.
Take `CCOC(=O)[C@H](C)N1CN/C(=N\[N+](=O)[O-])N(Cc2cnc(Cl)s2)C1`: in the experiment on Aphis medicaginis [1], the mortality at 10 µg/mL is no less than 60%. Further, the mortality at 500 µg/mL in the experiment with Aphis medicaginis [2] is no less than 80%. For the same compound, the mortality at 100 µg/mL in the experiment with Aphis medicaginis [3] was no less than 60%.
As for `CCOC(=O)[C@H]([C@@H](C)CC)N1CN/C(=N\[N+](=O)[O-])N(Cc2ccc(Cl)nc2)C1`, in the experiment on Aphis medicaginis [1], the mortality at 10 µg/mL was no less than 60%. The mortality at 500 µg/mL in the experiment with Aphis medicaginis [2] was no less than 80%. In addition, the mortality at 100 µg/mL with Aphis medicaginis [3] is no less than 80%.
On to `CCOC(=O)C[C@@H](C(=O)OCC)N1CN/C(=N\[N+](=O)[O-])N(Cc2ccc(Cl)nc2)C1`, for which, in the experiment with Aphis medicaginis [1], the mortality at 10 µg/mL is no less than 60%. Moreover, the mortality at 500 µg/mL in the experiment with Aphis medicaginis [2] was no less than 90%. In addition, the mortality at 100 µg/mL in the experiment with Aphis medicaginis [3] is no less than 70%.
In the case of `CCOC(=O)CN1CN/C(=N\[N+](=O)[O-])N(Cc2cnc(Cl)s2)C1`, in the experiment with Aphis medicaginis [1], the mortality at 10 µg/mL was no less than 60%. Moreover, the mortality at 500 µg/mL in the experiment with Aphis medicaginis [2] is no less than 80%. In addition, the mortality at 100 µg/mL in the experiment on Aphis medicaginis [3] was no less than 70%.
For `CCOC(=O)[C@H]([C@@H](C)CC)N1CN/C(=N\[N+](=O)[O-])N(Cc2cnc(Cl)s2)C1`, in that order: no less than 50%, no less than 80% and no less than 60%.
Take `CCOC(=O)[C@H](Cc1ccccc1)N1CN/C(=N\[N+](=O)[O-])N(Cc2ccc(Cl)nc2)C1`: in the experiment with Aphis medicaginis [1], the mortality at 10 µg/mL was no less than 50%. The mortality at 500 µg/mL with Aphis medicaginis [2] is no less than 70%. Also, in the experiment with Aphis medicaginis [3], the mortality at 100 µg/mL is no less than 60%.
In the same order, the values of `CCOC(=O)CCN1CN/C(=N\[N+](=O)[O-])N(Cc2cnc(Cl)s2)C1` are no less than 60%, 100% and no less than 70%.
In the same order, the values of `CCOC(=O)[C@H](CC(C)C)N1CN/C(=N\[N+](=O)[O-])N(Cc2ccc(Cl)nc2)C1` are no less than 70%, 100% and no less than 80%.
For the compound `CCOC(=O)CC(CC(=O)OCC)N1CN/C(=N\[N+](=O)[O-])N(Cc2cnc(Cl)s2)C1`, the mortality at 10 µg/mL in the experiment with Aphis medicaginis [1] was no less than 60%. For the same compound, the mortality at 500 µg/mL in the experiment on Aphis medicaginis [2] was no less than 90%. In the experiment on Aphis medicaginis [3], the mortality at 100 µg/mL is no less than 70%.
Consider `CCOC(=O)CN1CN/C(=N\[N+](=O)[O-])N(Cc2ccc(Cl)nc2)C1`, for which the mortality at 10 µg/mL with Aphis medicaginis [1] is no less than 60%. Also, in the experiment with Aphis medicaginis [2], the mortality at 500 µg/mL was no less than 80%. Moreover, in the experiment on Aphis medicaginis [3], the mortality at 100 µg/mL was no less than 70%.
For `CCOC(=O)[C@@H](c1ccc(Cl)cc1)N1CN/C(=N\[N+](=O)[O-])N(Cc2ccc(Cl)nc2)C1`, the mortality at 10 µg/mL with Aphis medicaginis [1] was no less than 50%. The mortality at 500 µg/mL in the experiment on Aphis medicaginis [2] is no less than 70%. Further, in the experiment on Aphis medicaginis [3], the mortality at 100 µg/mL was no less than 60%.
In the case of `CN1COCN(Cc2cnc(Cl)s2)/C1=N\[N+](=O)[O-]` [THIAMETHOXAM], the mortality at 10 µg/mL with Aphis medicaginis [1] was 100%. The mortality at 500 µg/mL in the experiment on Aphis medicaginis [2] came out at 100%. In addition, the mortality at 100 µg/mL in the experiment with Aphis medicaginis [3] stood at 100%.
In the case of `CCOC(=O)[C@H](C)N1CN/C(=N\[N+](=O)[O-])N(Cc2ccc(Cl)nc2)C1`, the mortality at 10 µg/mL in the experiment on Aphis medicaginis [1] is no less than 50%. Besides, in the experiment on Aphis medicaginis [2], the mortality at 500 µg/mL was no less than 70%. In addition, the mortality at 100 µg/mL with Aphis medicaginis [3] was no less than 60%.
Take `CCOC(=O)[C@H](CC(C)C)N1CN/C(=N\[N+](=O)[O-])N(Cc2cnc(Cl)s2)C1`: the mortality at 10 µg/mL in the experiment with Aphis medicaginis [1] is no less than 80%. Further, the mortality at 500 µg/mL in the experiment with Aphis medicaginis [2] is 100%. In the experiment on Aphis medicaginis [3], the mortality at 100 µg/mL was determined as 100%.
Regarding `O=[N+]([O-])/N=C1\NCCN1Cc1ccc(Cl)nc1` [IMIDACLOPRID], the mortality at 10 µg/mL in the experiment on Aphis medicaginis [1] worked out at 100%. The mortality at 500 µg/mL in the experiment on Aphis medicaginis [2] was found to be 100%. Besides, the mortality at 100 µg/mL with Aphis medicaginis [3] was 100%.
Regarding `CCOC(=O)CCN1CN/C(=N\[N+](=O)[O-])N(Cc2ccc(Cl)nc2)C1`, the mortality at 10 µg/mL with Aphis medicaginis [1] is no less than 70%. In the experiment on Aphis medicaginis [2], the mortality at 500 µg/mL was determined as 100%. The mortality at 100 µg/mL with Aphis medicaginis [3] was no less than 80%.
For `CCOC(=O)[C@@H](c1ccc(Cl)cc1)N1CN/C(=N\[N+](=O)[O-])N(Cc2cnc(Cl)s2)C1`, in that order: no less than 90%, 100% and 100%.
Consider `CCOC(=O)[C@H](CCSC)N1CN/C(=N\[N+](=O)[O-])N(Cc2ccc(Cl)nc2)C1`, for which the mortality at 500 µg/mL in the experiment on Aphis medicaginis [2] is no less than 70%. The mortality at 100 µg/mL in the experiment on Aphis medicaginis [3] was no less than 60%.
As for `CCOC(=O)CC(CC(=O)OCC)N1CN/C(=N\[N+](=O)[O-])N(Cc2ccc(Cl)nc2)C1`, in the experiment on Aphis medicaginis [1], the mortality at 10 µg/mL was no less than 60%. The mortality at 500 µg/mL in the experiment with Aphis medicaginis [2] stood at 100%. Also, the mortality at 100 µg/mL in the experiment on Aphis medicaginis [3] was no less than 70%.
In the same order, the values of `CCOC(=O)[C@H](C(C)C)N1CN/C(=N\[N+](=O)[O-])N(Cc2cnc(Cl)s2)C1` are no less than 50%, no less than 80% and no less than 60%.
For `CCOC(=O)[C@H](Cc1ccccc1)N1CN/C(=N\[N+](=O)[O-])N(Cc2cnc(Cl)s2)C1`, the mortality at 500 µg/mL with Aphis medicaginis [2] was no less than 70%. For the same compound, the mortality at 100 µg/mL in the experiment on Aphis medicaginis [3] was no less than 60%.
For `CCOC(=O)CCCN1CN/C(=N\[N+](=O)[O-])N(Cc2ccc(Cl)nc2)C1`, in the experiment on Aphis medicaginis [1], the mortality at 10 µg/mL was no less than 80%. For the same compound, in the experiment with Aphis medicaginis [2], the mortality at 500 µg/mL amounted to 100%. The mortality at 100 µg/mL in the experiment on Aphis medicaginis [3] stood at 100%.
Turning to `CCOC(=O)C[C@@H](C(=O)OCC)N1CN/C(=N\[N+](=O)[O-])N(Cc2cnc(Cl)s2)C1`, the mortality at 10 µg/mL with Aphis medicaginis [1] is no less than 70%. In addition, the mortality at 500 µg/mL with Aphis medicaginis [2] is no less than 90%. Also, the mortality at 100 µg/mL in the experiment with Aphis medicaginis [3] is no less than 80%.
For `CCOC(=O)[C@H](CCSC)N1CN/C(=N\[N+](=O)[O-])N(Cc2cnc(Cl)s2)C1`, in that order: no less than 50%, no less than 90% and no less than 60%.
